target: PDE4B (Homo sapiens, UniProt Q07343); experiment: Scintillation Proximity (SPA) Assay of PDE4B enzyme inhibition; format: biochemical; details: read-out: % Inhibition PDE4B @ 1 μM
Experimental: The inhibitions (in %) at 1 μM of the individual Example substances are included in the following Tables of Examples and were determined as follows:
The Scintillation Proximity (SPA) Assays (GE Healthcare, No. TRKQ7090) make use of the different affinities of cyclic 3′-5′-adenosine monophosphate (cAMP, low affinity) and linear 5′-adenosine monophosphate (AMP, high affinity) for yttrium silicate scintillator beads. The cAMP specific phosphodiesterase (PDE) PDE4B cleaves the 3′-phosphoester bond of the tritium-labelled [H3]-cAMP to form the [H3]-5′-AMP. Because of its higher affinity for the scintillator beads this [H3]-AMP accumulates on the beads and causes scintillation events (flashes of light) which are measured in a Wallac Microbeta Scintillation Counter.
The test starts with one hours incubation of [H3]-cAMP with the PDE4B enzyme in assay buffer at 30° C., once with the Example substance that is to be tested (in a concentration of 1 μM) and once without the Example substance that is to be tested. After this incubation the reaction is stopped by the addition of the beads. The beads are given an opportunity to settle over the next 45 minutes, then they are measured in the Scintillation Counter. If the substance is capable of inhibiting the enzymatic activity of the PDE4B, less [H3]-AMP is formed during the incubation phase and fewer scintillation events can be measured.

PDE4B, sequence (Q07343 whole entry, species assumed): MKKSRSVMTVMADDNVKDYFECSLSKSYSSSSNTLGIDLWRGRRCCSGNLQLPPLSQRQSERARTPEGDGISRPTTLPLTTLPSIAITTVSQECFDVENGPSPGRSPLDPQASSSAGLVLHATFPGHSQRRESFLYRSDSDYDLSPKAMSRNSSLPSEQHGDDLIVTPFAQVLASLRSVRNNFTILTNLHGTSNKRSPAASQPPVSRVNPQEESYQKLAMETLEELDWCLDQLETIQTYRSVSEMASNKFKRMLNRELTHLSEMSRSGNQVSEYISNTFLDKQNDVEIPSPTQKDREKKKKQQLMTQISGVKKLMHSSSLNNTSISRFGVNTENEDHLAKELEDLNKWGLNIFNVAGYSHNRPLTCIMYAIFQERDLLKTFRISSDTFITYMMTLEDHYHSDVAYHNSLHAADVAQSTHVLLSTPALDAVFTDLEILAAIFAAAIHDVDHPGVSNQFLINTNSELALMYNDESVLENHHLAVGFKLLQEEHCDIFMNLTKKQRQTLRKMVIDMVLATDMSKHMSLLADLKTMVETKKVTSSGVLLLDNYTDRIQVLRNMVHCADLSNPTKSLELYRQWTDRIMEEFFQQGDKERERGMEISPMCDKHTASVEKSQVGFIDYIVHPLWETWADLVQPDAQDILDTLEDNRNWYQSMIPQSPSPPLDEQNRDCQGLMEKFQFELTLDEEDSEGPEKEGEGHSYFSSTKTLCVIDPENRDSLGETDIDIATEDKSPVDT

| Compound | inhibition at 1 µM [%] |
| --- | --- |
| Cc1cc(Cl)ccc1N1CCN(c2nc3c(c(N[C@H]4CCC(=O)N(C)C4)n2)[S+]([O-])CC3)CC1 (stereo partly drawn) [Example 90, (S)-5-{2-[4-(4-CHLORO-2-METHYLPHENYL)-PIPERAZIN-1-YL]-5-OXO-6,7-DIHYDRO-5H-5λ^4-THIENO[3,2-D]PYRIMIDIN-4-YLAMINO}-1-METHYLPIPERIDIN-2-ONE] | 97 |
| Cc1cc(C)cc(N2CCN(c3nc4c(c(Nc5cccc(F)c5)n3)[S+]([O-])CC4)CC2)c1 (stereo not shown) [Example 100, {2-[4-(3,5-DIMETHYLPHENYL)-PIPERAZIN-1-YL]-5-OXO-6,7-DIHYDRO-5H-5λ^4-THIENO[3,2-D]PYRIMIDIN-4-YL}-(3-FLUOROPHENYL)-AMINE] | 97 |

same assay, conditions: test substance 1 μM; one hour incubation of [H3]-cAMP with PDE4B enzyme at 30° C.; read-out: % Inhibition PDE4B @ 1 μM

| inhibition at 1 µM [%] | Compound |
| --- | --- |
| 95 | Cc1cc(Cl)ccc1N1CCN(c2nc3c(c(NC4(CO)CC4)n2)[S+]([O-])CC3)CC1 (stereo not shown) [Example 81, (1-{2-[4-(4-CHLORO-2-METHYLPHENYL)-PIPERAZIN-1-YL]-5-OXO-6,7-DIHYDRO-5H-5λ^4-THIENO[3,2-D]PYRIMIDIN-4-YLAMINO}-CYCLOPROPYL)-METHANOL] |
| 94 | [O-][S+]1CCc2nc(N3CCN(c4ccc(Cl)cc4F)CC3)nc(NC3(CO)CC3)c21 (stereo not shown) [Example 105, (1-{2-[4-(4-CHLORO-2-FLUOROPHENYL)-PIPERAZIN-1-YL]-5-OXO-6,7-DIHYDRO-5H-5λ^4-THIENO[3,2-D]PYRIMIDIN-4-YLAMINO}-CYCLOPROPYL)-METHANOL] |
| 94 | [O-][S+]1CCc2nc(N3CCN(c4ccc(Cl)cc4F)CC3)nc(NC3CCOCC3)c21 (stereo not shown) [Example 107, {2-[4-(4-CHLORO-2-FLUOROPHENYL)-PIPERAZIN-1-YL]-5-OXO-6,7-DIHYDRO-5H-5λ^4-THIENO[3,2-D]PYRIMIDIN-4-YL}-(TETRAHYDROPYRAN-4-YL)-AMINE] |
| 92 | CC(C)[C@H](CO)Nc1nc(N2CCN(c3ccc(Cl)cc3F)CC2)nc2c1[S+]([O-])CC2 (stereo partly drawn) [Example 111, (R)-2-{2-[4-(4-CHLORO-2-FLUOROPHENYL)-PIPERAZIN-1-YL]-5-OXO-6,7-DIHYDRO-5H-5λ^4-THIENO[3,2-D]PYRIMIDIN-4-YLAMINO}-3-METHYLBUTAN-1-OL] |

Second part, the compound before the results:

| Compound | inhibition at 1 µM [%] |
| --- | --- |
| Cc1cc(Cl)ccc1N1CCN(c2nc3c(c(N[C@@H](CO)C(C)C)n2)[S+]([O-])CC3)CC1 (stereo partly drawn) [Example 75, (R)-2-{2-[4-(4-CHLORO-2-METHYLPHENYL)-PIPERAZIN-1-YL]-5-OXO-6,7-DIHYDRO-5H-5λ^4-THIENO[3,2-D]PYRIMIDIN-4-YLAMINO}-3-METHYLBUTAN-1-OL] | 90 |
| Cc1cc(Cl)ccc1N1CCN(c2nc3c(c(NC4CCOCC4)n2)[S+]([O-])CC3)CC1 (stereo not shown) [Example 98, {2-[4-(4-CHLORO-2-METHYLPHENYL)-PIPERAZIN-1-YL]-5-OXO-6,7-DIHYDRO-5H-5λ^4-THIENO[3,2-D]PYRIMIDIN-4-YL}-(TETRAHYDROPYRAN-4-YL)-AMINE] | 96 |
| [O-][S+]1CCc2nc(N3CCN(c4cc(Cl)cc(Cl)c4)CC3)nc(Nc3cccc(F)c3)c21 (stereo not shown) [Example 99, {2-[4-(3,5-DICHLOROPHENYL)-PIPERAZIN-1-YL]-5-OXO-6,7-DIHYDRO-5H-5λ^4-THIENO[3,2-D]PYRIMIDIN-4-YL}-(3-FLUOROPHENYL)-AMINE] | 96 |
| [O-][S+]1CCc2nc(N3CCN(c4ccc(Cl)cc4F)CC3)nc(Nc3cccc(F)c3)c21 (stereo not shown) [Example 109, {2-[4-(4-CHLORO-2-FLUOROPHENYL)-PIPERAZIN-1-YL]-5-OXO-6,7-DIHYDRO-5H-5λ^4-THIENO[3,2-D]PYRIMIDIN-4-YL}-(3-FLUOROPHENYL)-AMINE] | 92 |
